Among the test systems are MCF7 breast; HT29 colon; HS 578T breast; IGROV1 ovarian; NCI-H460 lung; ACHN renal; OVCAR-8 ovarian; NCI-H522 lung; MALME-3M melanoma; SR leukemia.
Holding throughout (experiment): NCI tumour cell line growth inhibition, 48 h

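Values below derive from 48-hour exposures of cells grown in 96-well plates, with endpoints linearly interpolated between the two concentrations bracketing the appropriate inhibition level. GI50 is the concentration that inhibits growth by half. TGI marks complete inhibition of growth.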

These results are taken from PubChem BioAssay (NCI).

In the case of `COC(=O)C1=COC(C)C2C[n+]3ccc4c([nH]c5ccccc54)c3CC12` (stereo unspecified), the TGI in the assay with MCF7 breast, in the assay with HT29 colon, in the assay with HS 578T breast, in the assay with IGROV1 ovarian, in the assay with NCI-H460 lung and with ACHN renal was above 100 µM throughout. Also, the TGI with OVCAR-8 ovarian and in the assay on NCI-H522 lung was above 100 µM throughout.
Take `COc1ccc(C[C@H]2NC(=O)/C=C/C[C@@H]([C@H](C)[C@H]3O[C@@H]3c3ccccc3)OC(=O)[C@H](CC(C)C)OC(=O)[C@H](C)CNC2=O)cc1`: the TGI in the assay on MCF7 breast was above 0.0001 µM; with HT29 colon, above 6.54e-05 µM; in the assay with MALME-3M melanoma it was above 0.0001 µM; with HS 578T breast it was above 6.66e-05 µM; in the assay on IGROV1 ovarian, above 0.0001 µM; in the assay on NCI-H460 lung, above 0.0001 µM. In addition, the TGI is above 0.0001 µM in the assay with ACHN renal, 5.55e-05 µM with OVCAR-8 ovarian and above 0.0001 µM with NCI-H522 lung.
Turning to `Cc1ccc(S(=O)(=O)N(CC(O)c2ccccc2)c2ccccc2F)cc1` (stereo unspecified), the TGI is 28 µM in the assay on MCF7 breast; 34.4 µM in the assay on HT29 colon; 34.1 µM with MALME-3M melanoma; 41.1 µM in the assay with HS 578T breast; 41.2 µM in the assay with IGROV1 ovarian; 32.5 µM with NCI-H460 lung. For the same compound, the results for the TGI in the assay with ACHN renal, in the assay with OVCAR-8 ovarian and in the assay on NCI-H522 lung were 40.1 µM, 36.9 µM and 32 µM, respectively.
Consider `Fc1ccc(C2NC(=S)NC3=C2CCOc2c3ccc3ccccc23)cc1` (stereo unspecified), for which the TGI with MCF7 breast, in the assay on MALME-3M melanoma, in the assay with HS 578T breast, in the assay with IGROV1 ovarian, in the assay with NCI-H460 lung and in the assay with ACHN renal was above 100 µM in each case. Also, the TGI in the assay on OVCAR-8 ovarian and with NCI-H522 lung was above 100 µM each time.
On to `CC(=O)N1CC(C)(C)c2c1cc(C)c(O)c2C`, for which the TGI in the assay with MCF7 breast, in the assay on HT29 colon, in the assay on HS 578T breast, in the assay on IGROV1 ovarian, in the assay with NCI-H460 lung and with ACHN renal was above 100 µM in each case. Further, the TGI in the assay with OVCAR-8 ovarian and in the assay on NCI-H522 lung was above 100 µM in each case.
In the case of `C/C=C1/CN2[C@@H](C3=C[C@@H]4[C@@H]5N(C3=O)c3ccccc3[C@@]53CCN5C/C(=C/C)[C@@H]4C[C@H]53)C[C@@]34c5ccccc5N5C(=O)CC=C([C@H]1C[C@H]23)[C@H]54`, the TGI came out at 10.7 µM with MCF7 breast; 8.08 µM in the assay with HT29 colon; 12.5 µM in the assay with MALME-3M melanoma; 17.3 µM with HS 578T breast; 15.4 µM in the assay on NCI-H460 lung; 12.1 µM in the assay on ACHN renal. Moreover, the TGI in the assay on OVCAR-8 ovarian worked out at 13.1 µM; with NCI-H522 lung, 14.6 µM.
Regarding `COc1cc(C(=O)O[C@H](C(=O)NCCNC(=O)[C@@H](OC(=O)c2cc(OC)cc3c(C)cccc23)[C@]2(C)CO2)[C@]2(C)CO2)c2cccc(C)c2c1`, the GI50 in the assay on MCF7 breast is below 0.01 µM; in the assay with HT29 colon, below 0.0198 µM; with HS 578T breast, 0.319 µM; in the assay on IGROV1 ovarian, below 0.0475 µM; in the assay on NCI-H460 lung, below 0.0214 µM; in the assay with OVCAR-8 ovarian, below 0.01 µM. Also, the TGI with MCF7 breast is 0.0238 µM; in the assay on HT29 colon it was 29.1 µM; in the assay with HS 578T breast, above 100 µM; with IGROV1 ovarian, 5.28 µM; in the assay with NCI-H460 lung, 0.359 µM; in the assay with OVCAR-8 ovarian, 0.0683 µM.
In the case of `COC(=O)c1c(C)ccc2c(O)c3c(cc12)C(=O)c1c2c(cc(O)c1C3=O)C1(C)OC(C)(O2)C(O)C(N(C)C)C1O` (stereo unspecified), the TGI in the assay on MCF7 breast was 8.04 µM; in the assay with HT29 colon it was 2.01 µM; in the assay with MALME-3M melanoma it was 6.42 µM; with ACHN renal, 4.67 µM; in the assay with OVCAR-8 ovarian it was 2.27 µM; in the assay on NCI-H522 lung, 2.33 µM.
Turning to `N#CC(c1nc2ccccc2s1)c1nc(Cl)ncc1Br` (stereo unspecified), the TGI with HT29 colon, with MALME-3M melanoma, in the assay with IGROV1 ovarian, in the assay on NCI-H460 lung, in the assay with ACHN renal and with OVCAR-8 ovarian was above 100 µM each time. Besides, the TGI in the assay with NCI-H522 lung worked out at 62.1 µM.
Take `NNC(=O)Cc1cccnc1`: the TGI with MCF7 breast, in the assay with HT29 colon, in the assay with MALME-3M melanoma, with HS 578T breast, in the assay with IGROV1 ovarian and in the assay with NCI-H460 lung was above 100 µM in each case. Also, the TGI in the assay with ACHN renal, in the assay on OVCAR-8 ovarian and in the assay on NCI-H522 lung was above 100 µM in each case.
In the case of `CC(=O)c1cc2c(s1)C(=O)c1scc(C(C)=O)c1C2=O`, the TGI was 0.335 µM in the assay on SR leukemia; 4.2 µM with HT29 colon; 1.9 µM in the assay on MALME-3M melanoma; 1.37 µM with IGROV1 ovarian; 1.27 µM in the assay on NCI-H460 lung; 0.828 µM with ACHN renal. In addition, the TGI was determined as 0.63 µM in the assay on OVCAR-8 ovarian and 1.28 µM in the assay with NCI-H522 lung.
For the compound `CSc1nc2c(c(=O)n1C)N=C(c1ccc(Cl)cc1)CC(c1ccccc1)N2` (stereo unspecified), the TGI in the assay with MCF7 breast was 27.2 µM; in the assay on SR leukemia, above 100 µM; in the assay with HT29 colon, 31.6 µM; in the assay on MALME-3M melanoma, 36.4 µM; in the assay on IGROV1 ovarian, 55.4 µM; in the assay on ACHN renal it was 44.6 µM. For the same compound, the values for the TGI in the assay with OVCAR-8 ovarian and in the assay with NCI-H522 lung were above 100 µM and 47.9 µM, respectively.
With `O=c1[nH]nc(Cc2ccccc2)n1/N=C/c1ccc([N+](=O)[O-])o1`, the TGI in the assay on MCF7 breast is above 100 µM; in the assay on HT29 colon, 18.9 µM; with MALME-3M melanoma, 3.21 µM; in the assay with HS 578T breast, 7.29 µM; in the assay on IGROV1 ovarian, 15.7 µM; in the assay with NCI-H460 lung, above 100 µM. The TGI in the assay on ACHN renal stood at 27.4 µM; with OVCAR-8 ovarian it was 19.2 µM; in the assay on NCI-H522 lung it was 3.87 µM.
Regarding `C\C=C/C=C/C=C/C(=O)O`, the TGI with HT29 colon, in the assay on MALME-3M melanoma, in the assay on IGROV1 ovarian, in the assay with NCI-H460 lung, with ACHN renal and with OVCAR-8 ovarian was above 100 µM throughout. This compound displayed a TGI with NCI-H522 lung above 100 µM.
On to `O=c1[nH]c(=S)c2cc3c(=S)[nH]c(=O)n(CCC(c4ccccc4)(c4ccccc4)c4ccccc4)c3nc2n1CCC(c1ccccc1)(c1ccccc1)c1ccccc1`, for which the TGI in the assay on MCF7 breast, in the assay on MALME-3M melanoma, in the assay on NCI-H460 lung, in the assay with ACHN renal and in the assay with NCI-H522 lung was above 100 µM each time.
